Test results: patent US9776962B2, “Aromatic compounds with GPR40 agonistic activity” (TAKEDA PHARMACEUTICAL COMPANY LIMITED, priority 2013, dated 2017)

Biological target: T1, human GPR40 (Homo sapiens, UniProt O14842)
T1 construct: expressed in transfected cells
Experiment: Evaluation of human GPR40 agonist activity with increase in intracellular Ca2+ concentration as an index (FLIPR)
Assay type: cell-based
Details: test compound 1 μM; CHO(dhfr−) cells stably expressing human GPR40; 100% = 10 μM compound of Example 153, 0% = DMSO
Protocol: Plasmid hGPR40/pAKKO-1.11H for mammalian cells expression, wherein cDNA fragment (SEQ ID NO: 1) encoding the full-length human GPR40 was incorporated into an expression vector pAKKO-1.11H (Biochimica et Biophysica Acta vol. 1219 pp. 251-259 (1994)), was transfected into CHO-dhfr(−) cells (ATCC, CRL-9096) by using Lipofectamine 2000 (Invitrogen:11668-019). After transfection, the limiting dilution-culture method was performed to select clone in selection medium (nucleic acid-free α-MEM (Invitrogen:12561-056)) containing 10% dialyzed bovine serum (Invitrogen:26400-044)). The expression level of human GPR40 mRNA was confirmed by TaqMan PCR (Life Technologies), and the intracellular calcium mobilization activity of GPR40 ligand (γ-linolenic acid) was confirmed by FLIPR (Molecular Devices), and a clone of human GPR40 expressing CHO cells was selected.
Evaluation of Human GPR40 Agonist Activity with Increase in Intracellular Ca^2+ Concentration as an Index
CHO(dhfr−) cells that stably expressed human GPR40 were suspended in MEMα (Nikken Bio Medical Laboratory) containing 10% dialyzed bovine serum (JR Scientific), 10 mM HEPES (Life Technologies), 100 U/mL penicillin, 100 μg/mL streptomycin (Life Technologies), and plated on a 384 well black/clear cell culture plate at 10,000 cells/well. After culture overnight in a CO2 incubator at 37° C., the culture supernatant was removed, and loading buffer [Ca^2+ probe attached to Calcium Kit II-iCellux (DOJINDO) was dissolved in assay buffer (20 mM HEPES, 0.1% fatty acid-free BSA (Sigma-Aldrich), 2.5 mM probenecid (DOJINDO)-containing HESS (Life Technologies))] was added at 30 μL/well. After leaving for 1 hr at room temperature under light shielding, assay buffer containing the test compound at a final concentration of 1 μM was added at 10 μL/well in FLIPR Tetra (Molecular Devices), and the fluorescence amount was successively measured. Human GPR40 agonist activity calculated using an increase in the intracellular Ca^2+ concentration as an index, wherein the activity of 10 μM of the compound of Example 153 was 100%, and the activity when DMSO was added instead of the test compound was 0%.

T1 sequence (O14842 whole entry): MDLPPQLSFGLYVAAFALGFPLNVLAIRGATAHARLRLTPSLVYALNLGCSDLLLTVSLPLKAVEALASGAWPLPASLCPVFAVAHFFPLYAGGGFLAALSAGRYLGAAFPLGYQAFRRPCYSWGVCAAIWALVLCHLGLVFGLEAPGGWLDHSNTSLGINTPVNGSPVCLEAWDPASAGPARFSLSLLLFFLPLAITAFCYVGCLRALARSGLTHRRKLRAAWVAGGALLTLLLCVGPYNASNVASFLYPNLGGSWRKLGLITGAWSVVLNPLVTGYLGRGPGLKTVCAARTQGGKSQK

Compound `COc1ccc(C(=O)N(CC(F)(F)C(F)F)c2ccccn2)c(N2CCC(COc3cc(C(CC(=O)O)C4CC4)ccn3)CC2)c1` (stereo not shown) [Example 138, 3-cyclopropyl-3-(2-((1-(5-methoxy-2-(pyridin-2-yl(2,2,3,3-tetrafluoropropyl)carbamoyl)phenyl)piperidin-4-yl)methoxy)pyridin-4-yl)propanoic acid] has an activation at 1 µM of 102%.
`COc1ccc(C(=O)N(CC2CC2(F)F)c2ccccn2)c(N2CCC(COc3cc(C(CC(=O)O)C4CC4)ccn3)CC2)c1` (stereo not shown) [Example 139, 3-cyclopropyl-3-(2-((1-(2-(((2,2-difluorocyclopropyl)methyl)(pyridin-2-yl)carbamoyl)-5-methoxyphenyl)piperidin-4-yl)methoxy)pyridin-4-yl)propanoic acid] showed an activation at 1 µM of 96%.
Compound `COc1ccc(C(=O)N2CCc3ccccc32)c(N2CCC(COc3cccc(C(CC(=O)O)C4CC4)c3)CC2)c1` (stereo not shown) [Example 4, 3-cyclopropyl-3-(3-((1-(2-(2,3-dihydro-1H-indol-1-ylcarbonyl)-5-methoxyphenyl)piperidin-4-yl)methoxy)phenyl)propanoic acid] has an activation at 1 µM of 97%.
Work on `COc1ccc(C(=O)N(CCC#N)c2ccccc2)c(N2CCC(COc3cccc(C(CC(=O)O)C4CC4)c3)CC2)c1` (stereo not shown) [Example 6, 3-(3-((1-(2-((2-cyanoethyl)(phenyl)carbamoyl)-5-methoxyphenyl)piperidin-4-yl)methoxy)phenyl)-3-cyclopropylpropanoic acid] yielded an activation at 1 µM of 73%.
`COc1ccc(C(=O)N(CC(C)(C)C)c2ccccn2)c(N2CCC(COc3cc(C(CC(=O)O)C4CC4)ccn3)CC2)c1` (stereo not shown) [Example 111, 3-cyclopropyl-3-(2-((1-(2-((2,2-dimethylpropyl)(pyridin-2-yl)carbamoyl)-5-methoxyphenyl)piperidin-4-yl)methoxy)pyridin-4-yl)propanoic acid] showed an activation at 1 µM of 100%.
`COc1ccc(C(=O)N2CCOc3ccccc32)c(N2CCC(COc3cc(C(CC(=O)O)C4CC4)ccn3)CC2)c1` (stereo not shown) [Example 199, 3-cyclopropyl-3-(2-((1-(2-(2,3-dihydro-4H-1,4-benzoxazin-4-ylcarbonyl)-5-methoxyphenyl)piperidin-4-yl)methoxy)pyridin-4-yl)propanoic acid] gave an activation at 1 µM of 93%.
Compound `COc1ccc(C(=O)N(CC(C)C)c2ccnc(OC)c2)c(N2CCC(COc3cc(C(CC(=O)O)C4CC4)ccn3)CC2)c1` (stereo not shown) [Example 127, 3-cyclopropyl-3-(2-((1-(5-methoxy-2-((2-methoxypyridin-4-yl)(2-methylpropyl)carbamoyl)phenyl)piperidin-4-yl)methoxy)pyridin-4-yl)propanoic acid] has an activation at 1 µM of 94%.
`COc1cc(N2CCC(COc3cc(C(CC(=O)O)C4CC4)ccn3)CC2)c(C(=O)N(CC(F)(F)F)c2ccccn2)cn1` (stereo not shown) [Example 256, 3-cyclopropyl-3-(2-((1-(2-methoxy-5-(pyridin-2-yl(2,2,2-trifluoroethyl)carbamoyl)pyridin-4-yl)piperidin-4-yl)methoxy)pyridin-4-yl)propanoic acid] gave an activation at 1 µM of 96%.
`COc1ccc(C(=O)N(CC(C)C)c2ccc(OC)nc2)c(N2CCC(COc3cc(C(CC(=O)O)C4CC4)ccn3)CC2)c1` (stereo not shown) [Example 140, 3-cyclopropyl-3-(2-((1-(5-methoxy-2-((6-methoxypyridin-3-yl)(2-methylpropyl)carbamoyl)phenyl)piperidin-4-yl)methoxy)pyridin-4-yl)propanoic acid] was tested, and the activation at 1 µM was 93%.
`COc1ccc(C(=O)N(CC(C)(C)OC(C)C)c2ccccn2)c(N2CCC(COc3cc(C(CC(=O)O)C4CC4)ccn3)CC2)c1` (stereo not shown) [Example 160, 3-cyclopropyl-3-(2-((1-(2-((2-isopropoxy-2-methylpropyl)(pyridin-2-yl)carbamoyl)-5-methoxyphenyl)piperidin-4-yl)methoxy)pyridin-4-yl)propanoic acid] gave an activation at 1 µM of 97%.
`COc1ccc(C(=O)N(CC2(F)CC2)c2ccccn2)c(N2CCC(COc3cc(C(CC(=O)O)C4CC4)ccn3)CC2)c1` (stereo not shown) [Example 144, 3-cyclopropyl-3-(2-((1-(2-(((1-fluorocyclopropyl)methyl)(pyridin-2-yl)carbamoyl)-5-methoxyphenyl)piperidin-4-yl)methoxy)pyridin-4-yl)propanoic acid] showed an activation at 1 µM of 79%.
In the case of `COCC(CC(=O)O)c1cccc(OCC2CCN(c3cc(OC)ccc3C(=O)N(CC(C)(C)C)c3cccc(C)n3)CC2)c1` (stereo not shown) [Example 276, 3-(3-((1-(2-((2,2-dimethylpropyl) (6-methylpyridin-2-yl)carbamoyl)-5-methoxyphenyl)piperidin-4-yl)methoxy)phenyl)-4-methoxybutanoic acid], the activation at 1 µM is reported as 96%.
For `COCC(C)(C)CN(C(=O)c1ccc(OC)cc1N1CCC(COc2cc(C(CC(=O)O)C3CC3)ccn2)CC1)c1ccccn1` (stereo not shown) [Example 155, 3-cyclopropyl-3-(2-((1-(5-methoxy-2-((3-methoxy-2,2-dimethylpropyl)(pyridin-2-yl)carbamoyl)phenyl)piperidin-4-yl)methoxy)pyridin-4-yl)propanoic acid], the activation at 1 µM was 96%.
Work on `COc1ccc(C(=O)N(CC(C)(C)C)c2cccc(C)n2)c(N2CCC(COc3cccc(C4(CC(=O)O)COC4)c3)CC2)c1` [Example 278, (3-(3-((1-(2-((2,2-dimethylpropyl) (6-methylpyridin-2-yl)carbamoyl)-5-methoxyphenyl)piperidin-4-yl)methoxy)phenyl)oxetan-3-yl)acetic acid] yielded an activation at 1 µM of 78%.
Compound `COc1ccc(C(=O)N(CC(C)(C)C)c2ncccn2)c(N2CCC(COc3cc(C(CC(=O)O)C4CC4)ccn3)CC2)c1` (stereo not shown) [Example 156, 3-cyclopropyl-3-(2-((1-(2-((2,2-dimethylpropyl)(pyrimidin-2-yl)carbamoyl)-5-methoxyphenyl)piperidin-4-yl)methoxy)pyridin-4-yl)propanoic acid] has an activation at 1 µM of 98%.
Work on `COc1ccc(C(=O)N(CC2CC(F)(F)C2)c2ccccn2)c(N2CCC(COc3cc(C(CC(=O)O)C4CC4)ccn3)CC2)c1` (stereo not shown) [Example 162, 3-cyclopropyl-3-(2-((1-(2-(((3,3-difluorocyclobutyl)methyl)(pyridin-2-yl)carbamoyl)-5-methoxyphenyl)piperidin-4-yl)methoxy)pyridin-4-yl)propanoic acid] yielded an activation at 1 µM of 99%.
Compound `COc1ccc(C(=O)N(CC(F)(F)F)c2cccc(C)n2)c(N2CCC(COc3cc(C(CC(=O)O)C4CC4)ccn3)CC2)c1` (stereo not shown) [Example 143, 3-cyclopropyl-3-(2-((1-(5-methoxy-2-((6-methylpyridin-2-yl)(2,2,2-trifluoroethyl)carbamoyl)phenyl)piperidin-4-yl)methoxy)pyridin-4-yl)propanoic acid] has an activation at 1 µM of 102%.
`COc1ccc(C(=O)N(CC(C)(C)C)c2ncccn2)c(N2CCC(COc3cc(C(CC(=O)O)C4CC4)c(F)cn3)CC2)c1` (stereo not shown) [Example 273, 3-cyclopropyl-3-(2-((1-(2-((2-dimethylpropyl)-(pyrimidin-2-yl)-carbamoyl)-5-methoxy-phenyl)piperidin-4-yl)-methoxy)-5-fluoropyridin-4-yl)propanoic acid] showed an activation at 1 µM of 101%.
`COc1ccc(C(=O)N(CC2(F)CCC2)c2ccccn2)c(N2CCC(COc3cc(C(CC(=O)O)C4CC4)ccn3)CC2)c1` (stereo not shown) [Example 154, 3-cyclopropyl-3-(2-((1-(2-(((1-fluorocyclobutyl)methyl)(pyridin-2-yl)carbamoyl)-5-methoxyphenyl)piperidin-4-yl)methoxy)pyridin-4-yl)propanoic acid] gave an activation at 1 µM of 100%.
`COc1ccc(C(=O)N(CC(C)(F)F)c2ccccn2)c(N2CCC(COc3cc(C(CC(=O)O)C4CC4)ccn3)CC2)c1` (stereo not shown) [Example 126, 3-cyclopropyl-3-(2-((1-(2-((2,2-difluoropropyl)(pyridin-2-yl)carbamoyl)-5-methoxyphenyl)piperidin-4-yl)methoxy)pyridin-4-yl)propanoic acid] gave an activation at 1 µM of 99%.
With `COc1ccc(C(=O)N(CC(F)(F)F)c2ccccn2)c(N2CCC(COc3cc(C(CC(=O)O)C4CC4)ccn3)CC2)c1` (stereo not shown) [Example 116, 3-cyclopropyl-3-(2-((1-(5-methoxy-2-(pyridin-2-yl(2,2,2-trifluoroethyl)carbamoyl)phenyl)piperidin-4-yl)methoxy)pyridin-4-yl)propanoic acid] the activation at 1 µM was 101%.
`COc1ccc(C(=O)N(CC(C)(C)F)c2cccc(C)n2)c(N2CCC(COc3cc(C(CC(=O)O)C4CC4)ccn3)CC2)c1` (stereo not shown) [Example 152, 3-cyclopropyl-3-(2-((1-(2-((2-fluoro-2-methylpropyl)(6-methylpyridin-2-yl)carbamoyl)-5-methoxyphenyl)piperidin-4-yl)methoxy)pyridin-4-yl)propanoic acid] was tested, and the activation at 1 µM was 100%.
